This note sets out measurements from patent US10246456B2, “IRAK4 inhibiting agents” (BIOGEN MA INC., priority 2014, dated 2019).

For orientation: IC50 means the concentration needed to halve the response being measured. The low end stands for greater potency in that assay, the high end for weaker potency in that assay. What is called EC50 is the concentration at which the effect is half-maximal.

Test [1] has as its target IRAK4 (Homo sapiens (Human), UniProt Q9NWZ3). Put plainly: IRAK-4 AlphaScreen biochemical kinase assay. The note with it: 1 nM IRAK4, 1 mM ATP, 3.5 h at RT. In short, it runs like this:
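AlphaScreen read-out: streptavidin beads bind the biotinylated peptide and protein A beads bind the anti-phosphothreonine antibody, so energy transfer reports phosphorylation of the peptide. The kinase is human IRAK-4.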
(In general: In Alpha technology, singlet oxygen from a donor bead excites a nearby acceptor bead.)

Test [2] has as its system IL-6 in A549 cells. Put plainly: Cell-based IL-6 ELISA assay in IL-1beta stimulated A549 cells. The conditions noted are these: 2 ng/ml human IL-1beta overnight. How it is done: The cell-based assays is based on IL-6 ELISA quantification. Briefly, A549 cells are cultured in DMEM with 10% FBS medium. When cells reach 80% confluence they are trypsin treated and seeded 180 ul/well in 96-well plate at 2.5×10^4 cells/well. Then, 20 ul of compound serial dilutions (starting at 10 uM, 10 points) are added to the cell plate; incubate for 30 min at 37 C and stimulated with 2 ng/ml human IL-1beta 37 C, 5% CO2 overnight. The next day 100 ul of cell supernatant per well are analyzed on a Human IL-6 Quantikine ELISA kit from R&D Systems.
In general terms: ELISA stands for enzyme-linked immunosorbent assay.

Sequence of IRAK4 (Q9NWZ3 whole entry, species assumed): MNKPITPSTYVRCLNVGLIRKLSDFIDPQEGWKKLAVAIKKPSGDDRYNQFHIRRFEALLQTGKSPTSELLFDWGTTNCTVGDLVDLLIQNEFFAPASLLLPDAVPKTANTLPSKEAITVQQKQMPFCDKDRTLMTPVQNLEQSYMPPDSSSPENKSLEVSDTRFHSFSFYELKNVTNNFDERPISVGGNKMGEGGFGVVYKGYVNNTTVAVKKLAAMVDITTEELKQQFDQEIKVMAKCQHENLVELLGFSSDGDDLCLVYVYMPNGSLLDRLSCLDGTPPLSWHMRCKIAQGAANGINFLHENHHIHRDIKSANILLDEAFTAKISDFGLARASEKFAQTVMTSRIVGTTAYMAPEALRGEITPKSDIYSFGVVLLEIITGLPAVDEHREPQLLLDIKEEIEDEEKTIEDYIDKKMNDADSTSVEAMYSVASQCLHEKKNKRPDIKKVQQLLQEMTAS

Take `CC(O)c1cccc(-n2ncc3ccc(-c4cccc([C@H](C)N)n4)cc32)n1` (single isomer, unassigned) [Example 415]: the concentration for half-maximal inhibition (IC50) in test [1] is 100 to 1000 nM. The compound further had a concentration giving a half-maximal response (EC50) in test [2] of at most 1000 nM.

In test [1], `CC(O)c1cccc(-n2ncc3ccc(-c4cccc([C@H](C)N)n4)cc32)n1` (single isomer, unassigned) [Example 416] showed a half-maximal inhibitory concentration (IC50) of under 100 nM. In test [2], this compound came in with an EC50 of at most 1000 nM.

As for `CCC[C@H](N)c1cccc(-c2ccc3cnn(-c4cccc(C(C)O)n4)c3c2)n1` (single isomer, unassigned) [Example 418], the IC50 in test [1] was under 100 nM. Besides, the EC50 in test [2] is at most 1000 nM.

In test [1], `CCCC(N)c1cccc(-c2ccc3cnn(-c4cccc(C(F)F)n4)c3c2)n1` (stereo in doubt) [Example 519, (S)-1-(6-(1-(6-(difluoromethyl)pyridin-2-yl)-1H-indazol-6-yl)pyridin-2-yl)butan-1-amine] yielded an IC50 of under 100 nM. In test [2], the concentration for a half-maximal effect (EC50) was at most 1000 nM.

In turn, `CC(N)c1cccc(-c2ccc3cnn(-c4cccc(C(F)F)n4)c3c2)n1` (stereo in doubt) [Example 529, (S)-1-(6-(1-(6-(difluoromethyl)pyridin-2-yl)-1H-indazol-6-yl)pyridin-2-yl)ethanamine] showed a half-inhibitory concentration (IC50) in test [1] of under 100 nM. In test [2], this compound returned an EC50 of at most 1000 nM.

Compound `CCC[C@H](N)c1cccc(-c2cc(N3CCCCC3)c3cnn(-c4cccc(CO)n4)c3c2)n1` [Example 324, (S)-(6-(6-(6-(1-aminobutyl)pyridin-2-yl)-4-(piperidin-1-yl)-1H-indazol-1-yl)pyridin-2-yl)methanol] displayed a 50% effective concentration (EC50) in test [2] of at most 1000 nM.

With `CCC[C@H](N)c1cccc(-c2cc(N3CCC(O)C3)c3cnn(-c4cccc(CO)n4)c3c2)n1` (stereo partly drawn) [Example 325, 1-(6-(6-((S)-1-aminobutyl)pyridin-2-yl)-1-(6-(hydroxymethyl)pyridin-2-yl)-1H-indazol-4-yl)pyrrolidin-3-ol], in test [1], the 50% inhibitory concentration (IC50) was under 100 nM. The EC50 in test [2] is at most 1000 nM.

In the case of `CCC[C@H](N)c1cccc(-c2cc(N3CCCC3CO)c3cnn(-c4cccc(CO)n4)c3c2)n1` (stereo partly drawn) [Example 326, (1-(6-(6-((S)-1-aminobutyl)pyridin-2-yl)-1-(6-(hydroxymethyl)pyridin-2-yl)-1H-indazol-4-yl)pyrrolidin-2-yl)methanol], the 50% inhibitory concentration (IC50) in test [1] was under 100 nM. The compound further displayed an EC50 in test [2] of at most 1000 nM.

For the compound `CCC[C@H](N)c1cccc(-c2cc(NC)c3cnn(-c4cccc(CO)n4)c3c2)n1` [Example 327, (S)-(6-(6-(6-(1-aminobutyl)pyridin-2-yl)-4-(methylamino)-1H-indazol-1-yl)pyridin-2-yl)methanol], the IC50 in test [1] is under 100 nM. Also, the EC50 in test [2] is at most 1000 nM.

In the case of `CCC[C@H](N)c1cccc(-c2cc(NCC)c3cnn(-c4cccc(CO)n4)c3c2)n1` [Example 328, (S)-(6-(6-(6-(1-aminobutyl)pyridin-2-yl)-4-(ethylamino)-1H-indazol-1-yl)pyridin-2-yl)methanol], the concentration for half-maximal inhibition (IC50) in test [1] is under 100 nM. This compound also displayed a concentration for a half-maximal effect (EC50) in test [2] of at most 1000 nM.

`CCC[C@H](N)c1cccc(-c2cc(N3CCC(O)CC3)c3cnn(-c4cccc(CO)n4)c3c2)n1` [Example 329, (S)-1-(6-(6-(1-aminobutyl)pyridin-2-yl)-1-(6-(hydroxymethyl)pyridin-2-yl)-1H-indazol-4-yl)piperidin-4-ol]: in test [1], the IC50 is under 100 nM. The compound also showed a 50% effective concentration (EC50) in test [2] of at most 1000 nM.

`CCC[C@H](N)c1cccc(-c2cc(N3CCCC(O)C3)c3cnn(-c4cccc(CO)n4)c3c2)n1` (stereo partly drawn) [Example 330, 1-(6-(6-((S)-1-aminobutyl)pyridin-2-yl)-1-(6-(hydroxymethyl)pyridin-2-yl)-1H-indazol-4-yl)piperidin-3-ol]: the concentration for half-maximal inhibition (IC50) in test [1] was under 100 nM. This compound also registered an EC50 in test [2] of at most 1000 nM.

`CCC[C@H](N)c1cccc(-c2cc(N3CC(F)(F)C3)c3cnn(-c4cccc(CO)n4)c3c2)n1` [Example 331, (S)-(6-(6-(6-(1-aminobutyl)pyridin-2-yl)-4-(3,3-difluoroazetidin-1-yl)-1H-indazol-1-yl)pyridin-2-yl)methanol] displayed an IC50 in test [1] of under 100 nM. This compound also yielded an EC50 in test [2] of at most 1000 nM.

Regarding `CCC[C@H](N)c1cccc(-c2cc(N3CC(CO)(CCl)C3)c3cnn(-c4cccc(CO)n4)c3c2)n1` [Example 332, (S)-(1-(6-(6-(1-aminobutyl)pyridin-2-yl)-1-(6-(hydroxymethyl)pyridin-2-yl)-1H-indazol-4-yl)-3-(chloromethyl)azetidin-3-yl)methanol], the IC50 in test [1] is under 100 nM. Also, in test [2], the EC50 was at most 1000 nM.

With `CCC[C@H](N)c1cccc(-c2cc(N3CCC(F)(F)C3)c3cnn(-c4cccc(CO)n4)c3c2)n1` [Example 333, (S)-(6-(6-(6-(1-aminobutyl)pyridin-2-yl)-4-(3,3-difluoropyrrolidin-1-yl)-1H-indazol-1-yl)pyridin-2-yl)methanol], in test [1], the IC50 was under 100 nM. Besides, the concentration for a half-maximal effect (EC50) in test [2] was at most 1000 nM.

`CCC[C@H](N)c1cccc(-c2cc(N3CCOC(C)C3)c3cnn(-c4cccc(CO)n4)c3c2)n1` (stereo partly drawn) [Example 334, (6-(6-(6-((S)-1-aminobutyl)pyridin-2-yl)-4-(2-methylmorpholino)-1H-indazol-1-yl)pyridin-2-yl)methanol] registered a concentration for half-maximal inhibition (IC50) in test [1] of under 100 nM. The compound further came in with a concentration giving a half-maximal response (EC50) in test [2] of at most 1000 nM.

Take `CCC[C@H](N)c1cccc(-c2cc(N3CC(C)OC(C)C3)c3cnn(-c4cccc(CO)n4)c3c2)n1` (stereo partly drawn) [Example 335, (6-(6-(6-((S)-1-aminobutyl)pyridin-2-yl)-4-(2,6-dimethylmorpholino)-1H-indazol-1-yl)pyridin-2-yl)methanol]: in test [1], the half-inhibitory concentration (IC50) was under 100 nM. The EC50 in test [2] was at most 1000 nM.

As to `CCC[C@H](N)c1cccc(-c2cc(NCC(CCl)C(=O)O)c3cnn(-c4cccc(CO)n4)c3c2)n1` (stereo partly drawn) [Example 336, 3-((6-(6-((S)-1-aminobutyl)pyridin-2-yl)-1-(6-(hydroxymethyl)pyridin-2-yl)-1H-indazol-4-yl)amino)-2-(chloromethyl)propanoic acid], the IC50 in test [1] was under 100 nM. In test [2], the EC50 was at most 1000 nM.

`CCC[C@H](N)c1cccc(-c2cc(N3CCS(=O)(=O)CC3)c3cnn(-c4cccc(CO)n4)c3c2)n1` [Example 337, (S)-4-(6-(6-(1-aminobutyl)pyridin-2-yl)-1-(6-(hydroxymethyl)pyridin-2-yl)-1H-indazol-4-yl)thiomorpholine 1,1-dioxide] had a 50% inhibitory concentration (IC50) in test [1] of under 100 nM. In addition, the EC50 in test [2] was at most 1000 nM.

Consider `CCC[C@H](N)c1cccc(-c2cc(N3CCSCC3)c3cnn(-c4cccc(CO)n4)c3c2)n1` [Example 338, (S)-(6-(6-(6-(1-aminobutyl)pyridin-2-yl)-4-thiomorpholino-1H-indazol-1-yl)pyridin-2-yl)methanol], for which the half-inhibitory concentration (IC50) in test [1] was under 100 nM. Further, the EC50 in test [2] was at most 1000 nM.

For `CCC[C@H](N)c1cccc(-c2cc(N3CCOCC3)c3cnn(-c4cccc(CO)n4)c3c2)n1` [Example 339, (S)-(6-(6-(6-(1-aminobutyl)pyridin-2-yl)-4-morpholino-1H-indazol-1-yl)pyridin-2-yl)methanol], the half-maximal effective concentration (EC50) in test [2] was at most 1000 nM.

For the compound `CCC[C@H](N)c1cccc(-c2cc(N3CC(C)(C)C3)c3cnn(-c4cccc(CO)n4)c3c2)n1` [Example 340, (S)-(6-(6-(6-(1-aminobutyl)pyridin-2-yl)-4-(3,3-dimethylazetidin-1-yl)-1H-indazol-1-yl)pyridin-2-yl)methanol], the IC50 in test [1] was under 100 nM. Also, the concentration giving a half-maximal response (EC50) in test [2] was at most 1000 nM.

`CCC[C@H](N)c1cccc(-c2cc(N3CCC3)c3cnn(-c4cccc(CO)n4)c3c2)n1` [Example 345, (S)-(6-(6-(6-(1-aminobutyl)pyridin-2-yl)-4-(azetidin-1-yl)-1H-indazol-1-yl)pyridin-2-yl)methanol] had an EC50 in test [2] of at most 1000 nM.

Regarding `CCc1cccc(-c2cc(-c3nnc(C)o3)c3cnn(-c4cccc(CO)n4)c3c2)n1` [Example 358, (6-(6-(6-ethylpyridin-2-yl)-4-(5-methyl-1,3,4-oxadiazol-2-yl)-1H-indazol-1-yl)pyridin-2-yl)methanol], the concentration for a half-maximal effect (EC50) in test [2] is at most 1000 nM.

In test [2], `CCC[C@H](N)c1cccc(-c2cc(C3=CCN(C)CC3)c3cnn(-c4cccc(CO)n4)c3c2)n1` [Example 423, (S)-(6-(6-(6-(1-aminobutyl)pyridin-2-yl)-4-(1-methyl-1,2,3,6-tetrahydropyridin-4-yl)-1H-indazol-1-yl)pyridin-2-yl)methanol] showed a concentration giving a half-maximal response (EC50) of at most 1000 nM.

Take `C[C@H](N)c1cccc(-c2cc(F)c3cnn(-c4cccc(CO)n4)c3c2)n1` [Example 475, (6-{6-[6-((S)-1-Amino-ethyl)-pyridin-2-yl]-4-fluoro-indazol-1-yl}-pyridin-2-yl)-methanol]: the EC50 in test [2] is at most 1000 nM.

For the compound `CCC(O)C(N)c1cccc(-c2ccc3cnn(-c4cccc(CO)n4)c3c2)n1` (centres unmarked) [Example 516, 1-amino-1-(6-(1-(6-(hydroxymethyl)pyridin-2-yl)-1H-indazol-6-yl)pyridin-2-yl)butan-2-ol], in test [2], the EC50 is at most 1000 nM.

In turn, `CC(O)CC(N)c1cccc(-c2ccc3cnn(-c4cccc(CO)n4)c3c2)n1` (centres unmarked) [Example 525, 4-amino-4-(6-(1-(6-(hydroxymethyl)pyridin-2-yl)-1H-indazol-6-yl)pyridin-2-yl)butan-2-ol] had an EC50 in test [2] of at most 1000 nM.

Compound `CCC[C@H](N)c1cccc(-c2cc(C3CCOC3)c3cnn(-c4cccc(CO)n4)c3c2)n1` (stereo partly drawn) [Example 597, (6-(6-(6-((S)-1-aminobutyl)pyridin-2-yl)-4-(tetrahydrofuran-3-yl)-1H-indazol-1-yl)pyridin-2-yl)methanol] had a 50% inhibitory concentration (IC50) in test [1] of under 100 nM.

In test [1], `CCC[C@H](N)c1cccc(-c2cc(OCC3CC(F)(F)C3)c3cnn(-c4cccc(CO)n4)c3c2)n1` [Example 598, (S)-(6-(6-(6-(1-aminobutyl)pyridin-2-yl)-4-((3,3-difluorocyclobutyl)methoxy)-1H-indazol-1-yl)pyridin-2-yl)methanol] showed an IC50 of under 100 nM.
